Test results from the NIST ThermoML archive (doi:10.1016/j.fluid.2019.112248).
Several values for one entry are separate records, joined by “and”; a condition that tells them apart may be missing. Equal values may be shown once. ± gives the expanded uncertainty stated by the source.

Legend:
[1] = Molar enthalpy of transition or fusion; settings: DSC
[2] = Boiling temperature at pressure P; settings: 100 kPa; Glass; DTA
[3] = molar heat capacity at constant pressure; settings: 101.33 kPa, Liquid, DSC
[4] = for vapor or sublimation pressure: Liquid, Closed cell (Static) method; for Normal melting temperature: DTA

## C=CCc1ccc(O)c(OC)c1 [2-hydroxy-5-allylanisole]
[1]; Crystal 1
  Molar enthalpy of transition or fusion: 4.06 ± 0.263 kcal/mol
[1]; Crystal 2
  Molar enthalpy of transition or fusion: 2.01 ± 0.143 kcal/mol
[2]
  Boiling temperature at pressure P: -81.7 ± 0.3 °C
[3]; 265 K
  molar heat capacity at constant pressure: 311.2 ± 12 J/K/mol
[3]; 270 K
  molar heat capacity at constant pressure: 312.8 ± 12 J/K/mol
[3]; 275 K
  molar heat capacity at constant pressure: 314.5 ± 12 J/K/mol
[3]; 280 K
  molar heat capacity at constant pressure: 315.8 ± 12 J/K/mol
[3]; 285 K
  molar heat capacity at constant pressure: 317.4 ± 12 J/K/mol
[3]; 290 K
  molar heat capacity at constant pressure: 319.2 ± 12 J/K/mol
[3]; 295 K
  molar heat capacity at constant pressure: 321 ± 12 J/K/mol
[3]; 300 K
  molar heat capacity at constant pressure: 322.9 ± 12 J/K/mol
[3]; 305 K
  molar heat capacity at constant pressure: 324.8 ± 13 J/K/mol
[3]; 310 K
  molar heat capacity at constant pressure: 326.4 ± 13 J/K/mol
[3]; 315 K
  molar heat capacity at constant pressure: 328.2 ± 13 J/K/mol
[3]; 320 K
  molar heat capacity at constant pressure: 329.9 ± 13 J/K/mol
[3]; 325 K
  molar heat capacity at constant pressure: 331.7 ± 13 J/K/mol
[3]; 330 K
  molar heat capacity at constant pressure: 333.3 ± 13 J/K/mol
[3]; 335 K
  molar heat capacity at constant pressure: 334.8 ± 13 J/K/mol
[3]; 340 K
  molar heat capacity at constant pressure: 336.1 ± 13 J/K/mol
[3]; 345 K
  molar heat capacity at constant pressure: 337.1 ± 13 J/K/mol
[3]; 350 K
  molar heat capacity at constant pressure: 338.2 ± 13 J/K/mol
[3]; 355 K
  molar heat capacity at constant pressure: 339.1 ± 13 J/K/mol
[4]; 273.7 K
  vapor or sublimation pressure: 0.000153 ± 0.00014 kPa and 0.000152 ± 0.00014 kPa
[4]; 278.19 K
  vapor or sublimation pressure: 0.000252 ± 0.00014 kPa and 0.000251 ± 0.00014 kPa
[4]; 283.19 K
  vapor or sublimation pressure: 0.000451 ± 0.00014 kPa and 0.000443 ± 0.00014 kPa and 0.000444 ± 0.00014 kPa
[4]; 288.19 K
  vapor or sublimation pressure: 0.000724 ± 0.00015 kPa and 0.000725 ± 0.00015 kPa and 0.000723 ± 0.00015 kPa
[4]; 293.2 K
  vapor or sublimation pressure: 0.001256 ± 0.00016 kPa and 0.001233 ± 0.00016 kPa and 0.001223 ± 0.00016 kPa
[4]; 298.2 K
  vapor or sublimation pressure: 0.00193 ± 0.00017 kPa and 0.001938 ± 0.00017 kPa and 0.001934 ± 0.00017 kPa
[4]; 303.2 K
  vapor or sublimation pressure: 0.00307 ± 0.0002 kPa and 0.003081 ± 0.0002 kPa and 0.003077 ± 0.0002 kPa
[4]; 308.2 K
  vapor or sublimation pressure: 0.004871 ± 0.00025 kPa
[4]; 308.21 K
  vapor or sublimation pressure: 0.004864 ± 0.00025 kPa and 0.004868 ± 0.00025 kPa
[4]; Crystal 1
  Normal melting temperature: -11.3 ± 0.5 °C
[4]; Crystal 2
  Normal melting temperature: -28.5 ± 0.5 °C

## C=C(C)[C@H]1CC=C(C)C(=O)C1 [d-carvone]
[1]; Crystal
  Molar enthalpy of transition or fusion: 2.68 ± 0.0956 kcal/mol
[3]; 265 K
  molar heat capacity at constant pressure: 264.9 ± 10 J/K/mol
[3]; 270 K
  molar heat capacity at constant pressure: 266.7 ± 10 J/K/mol
[3]; 275 K
  molar heat capacity at constant pressure: 268.7 ± 10 J/K/mol
[3]; 280 K
  molar heat capacity at constant pressure: 270.6 ± 10 J/K/mol
[3]; 285 K
  molar heat capacity at constant pressure: 272.9 ± 11 J/K/mol
[3]; 290 K
  molar heat capacity at constant pressure: 275.2 ± 11 J/K/mol
[3]; 295 K
  molar heat capacity at constant pressure: 277.7 ± 11 J/K/mol
[3]; 300 K
  molar heat capacity at constant pressure: 280.3 ± 11 J/K/mol
[3]; 305 K
  molar heat capacity at constant pressure: 282.7 ± 11 J/K/mol
[3]; 310 K
  molar heat capacity at constant pressure: 284.9 ± 11 J/K/mol
[3]; 315 K
  molar heat capacity at constant pressure: 287.1 ± 11 J/K/mol
[3]; 320 K
  molar heat capacity at constant pressure: 289.5 ± 11 J/K/mol
[3]; 325 K
  molar heat capacity at constant pressure: 292.1 ± 11 J/K/mol
[3]; 330 K
  molar heat capacity at constant pressure: 294.3 ± 11 J/K/mol
[3]; 335 K
  molar heat capacity at constant pressure: 296.5 ± 12 J/K/mol
[3]; 340 K
  molar heat capacity at constant pressure: 298.2 ± 12 J/K/mol
[3]; 345 K
  molar heat capacity at constant pressure: 299.7 ± 12 J/K/mol
[3]; 350 K
  molar heat capacity at constant pressure: 301.1 ± 12 J/K/mol
[3]; 355 K
  molar heat capacity at constant pressure: 302 ± 12 J/K/mol
[4]; 258.18 K
  vapor or sublimation pressure: 0.000197 ± 0.00013 kPa and 0.000202 ± 0.00013 kPa and 0.000201 ± 0.00013 kPa
[4]; 263.19 K
  vapor or sublimation pressure: 0.000371 ± 0.00014 kPa and 0.000373 ± 0.00014 kPa
[4]; 268.18 K
  vapor or sublimation pressure: 0.000653 ± 0.00014 kPa and 0.000656 ± 0.00014 kPa
[4]; 268.19 K
  vapor or sublimation pressure: 0.000653 ± 0.00014 kPa
[4]; 273.19 K
  vapor or sublimation pressure: 0.001096 ± 0.00015 kPa and 0.001097 ± 0.00015 kPa
[4]; 273.69 K
  vapor or sublimation pressure: 0.001133 ± 0.00015 kPa and 0.001138 ± 0.00015 kPa
[4]; 273.7 K
  vapor or sublimation pressure: 0.001141 ± 0.00015 kPa
[4]; 278.19 K
  vapor or sublimation pressure: 0.001788 ± 0.00016 kPa and 0.001789 ± 0.00016 kPa and 0.00179 ± 0.00016 kPa
[4]; 283.19 K
  vapor or sublimation pressure: 0.002902 ± 0.00019 kPa and 0.002899 ± 0.00019 kPa and 0.002893 ± 0.00019 kPa
[4]; 288.19 K
  vapor or sublimation pressure: 0.004581 ± 0.00024 kPa
[4]; 288.2 K
  vapor or sublimation pressure: 0.004579 ± 0.00024 kPa and 0.004587 ± 0.00024 kPa
[4]; 293.2 K
  vapor or sublimation pressure: 0.007151 ± 0.00032 kPa and 0.007137 ± 0.00032 kPa
[4]; 298.2 K
  vapor or sublimation pressure: 0.0109 ± 0.00045 kPa
[4]; 298.21 K
  vapor or sublimation pressure: 0.0109 ± 0.00045 kPa
[4]; 303.2 K
  vapor or sublimation pressure: 0.01637 ± 0.00058 kPa and 0.01638 ± 0.00058 kPa
[4]; 308.21 K
  vapor or sublimation pressure: 0.02413 ± 0.00072 kPa and 0.02415 ± 0.00072 kPa
[4]; Crystal
  Normal melting temperature: -26.4 ± 0.5 °C
